# Measured values taken from patent US11850220B2 (Augusta University Research Institute, Inc., priority 2020, dated 2023).
# Legend:
# [1] = test system: carrageenan-induced paw edema; test: carrageenan-induced paw edema technique (anti-inflammatory); type: in vivo; conditions: for Observed (1/property): 1/(% inhibition of edema thickness at 3 h effect); for Observed (1/property): test concentration or dose not given here; for Potency (% Inhibition relative to indomethacin at 3 h effect): test concentration or dose not given here
# From the text: Anti-inflammatory properties of the ibuprofen-amino acid conjugate (5a-j) and ibuprofen-amino acid-4-aminophenol conjugates 7a-j were studied by the standard carrageenan-induced paw edema technique (Naumov, R. N. et al., Bioorg. Med. Chem. Lett. 2015, 25, 2314-2320; Tiwari, A. D. et al., Org. Biomol. Chem. 2014, 12, 7238-7249).
# [2] = test system: animal gastric mucosa; test: ulcerogenic liability; type: in vivo; conditions: in vivo
# [3] = test system: acetic acid-induced abdominal writhing; test: acetic acid-induced abdominal writhing technique (peripheral analgesic); type: in vivo; conditions: for Potency: Relative to indomethacin; for % Inhibition/protection / Writing reflex ± SEM: in vivo; for % Inhibition/protection: test concentration or dose not given here; for Writing reflex ± SEM: test concentration or dose not given here
# [4] = test system: hot plate; test: hot plate technique (central analgesic); type: in vivo; conditions: for Potency: Relative to indomethacin at 120 min.
# [5] = biological target: COX-1 (Homo sapiens, UniProt P23219); test: COX-1/2 bio-assay: COX-1; type: biochemical; conditions: read-out: IC50 ± SD, COX-1
# COX-1, sequence (P23219 24-599): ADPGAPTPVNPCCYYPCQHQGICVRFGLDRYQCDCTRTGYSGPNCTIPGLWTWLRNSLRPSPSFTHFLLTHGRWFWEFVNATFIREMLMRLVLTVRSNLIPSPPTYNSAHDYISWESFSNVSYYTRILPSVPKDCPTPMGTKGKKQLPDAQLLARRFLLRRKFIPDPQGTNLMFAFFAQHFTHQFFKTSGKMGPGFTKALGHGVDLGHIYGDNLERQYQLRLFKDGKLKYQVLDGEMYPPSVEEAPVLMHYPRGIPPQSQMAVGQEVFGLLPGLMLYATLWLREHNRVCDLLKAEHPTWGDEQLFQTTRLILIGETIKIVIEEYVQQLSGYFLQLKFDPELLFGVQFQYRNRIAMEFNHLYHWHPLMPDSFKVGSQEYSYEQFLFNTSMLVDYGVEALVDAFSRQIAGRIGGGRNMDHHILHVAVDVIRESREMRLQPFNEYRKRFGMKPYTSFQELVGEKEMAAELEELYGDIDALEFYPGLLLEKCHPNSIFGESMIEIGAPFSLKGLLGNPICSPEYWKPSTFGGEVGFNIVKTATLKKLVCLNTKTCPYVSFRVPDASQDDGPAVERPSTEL
# From the text: (§1) Cyclooxygenases (COX) are the key enzymes capable of the conversion of arachidonic acid to prostaglandins.
# [6] = biological target: T1, COX-2 (Homo sapiens, UniProt P35354); test: COX-1/2 bio-assay: COX-2; type: biochemical; conditions: for IC50: read-out: IC50 ± SD, COX-2; for SI(COX-2/COX-1): selectivity index COX-2/COX-1
# T1 sequence (P35354 18-604): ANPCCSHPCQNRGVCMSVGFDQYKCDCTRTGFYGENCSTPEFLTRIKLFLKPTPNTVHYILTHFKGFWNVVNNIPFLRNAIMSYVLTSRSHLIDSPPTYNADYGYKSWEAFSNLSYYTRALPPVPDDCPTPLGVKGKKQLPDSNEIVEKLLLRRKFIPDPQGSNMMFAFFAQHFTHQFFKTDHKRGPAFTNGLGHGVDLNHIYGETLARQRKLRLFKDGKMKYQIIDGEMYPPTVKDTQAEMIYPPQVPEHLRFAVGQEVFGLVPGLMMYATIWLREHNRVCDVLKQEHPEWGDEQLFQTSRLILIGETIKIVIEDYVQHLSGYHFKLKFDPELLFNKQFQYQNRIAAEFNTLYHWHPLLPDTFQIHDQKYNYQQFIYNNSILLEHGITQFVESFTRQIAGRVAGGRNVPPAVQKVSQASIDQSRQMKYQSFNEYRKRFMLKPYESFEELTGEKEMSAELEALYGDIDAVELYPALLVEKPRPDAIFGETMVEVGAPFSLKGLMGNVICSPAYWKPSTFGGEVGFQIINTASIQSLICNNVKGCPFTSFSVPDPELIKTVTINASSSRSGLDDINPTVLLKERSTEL
# From the text: as §1
# [7] = % inhibition of edema thickness at 3 h effect, Table 7
# [8] = anti-inflammatory property (% inhibition of edema at 3 h), Table 8
SMILES,Observed (1/property) ([1]; Table 7),% inhibition of edema ([1]; 1 h) [%],Mean edema thickness ([1]; 1 h) [mm],% inhibition of edema ([1]; 2 h) [%],Mean edema thickness ([1]; 2 h) [mm],% inhibition of edema ([1]; 3 h) [%],Mean edema thickness ([1]; 3 h) [mm],% inhibition of edema ([1]; 4 h) [%],Mean edema thickness ([1]; 4 h) [mm],% inhibition of edema ([1]; 24 h) [%],Mean edema thickness ([1]; 24 h) [mm],"Observed property [1, 7] [%]","Observed property [1, 8] [%]",Potency (% Inhibition relative to indomethacin at 3 h effect) [1] [%],Potency [3],% Inhibition/protection [3] [%],Writing reflex ± SEM [3],% protection ([4]; After 30 min.),Latency period ± SEM ([4]; After 30 min.) [s],% protection ([4]; After 60 min.),also measured
CC[C@H](C)[C@@H](NC(=O)C(C)c1ccc(CC(C)C)cc1)C(=O)Nc1ccc(O)cc1 (some centres unmarked) [Compound 7f],0.01111,42,0.71 ± 0.01,48,0.79 ± 0.04,90,0.13 ± 0.02,16,1.05 ± 0.05,42,0.11 ± 0.02,90,90,113,155,85.3,14.3 ± 0.8,(64.5) %,3.98 ± 0.06,(74.0) %,"% Incidence of ulcer divided by 10 [2]: 0; Average of ulcer number [2]: 0; Average severity of ulcer [2]: 0; Number of animals with ulcer [2]: 0; Ulcer index [2]: 0; Latency period ± SEM ([4]; After 60 min.): 3.88 ± 0.02 s; % protection ([4]; After 90 min.): (76.4) %; Latency period ± SEM ([4]; After 90 min.): 3.88 ± 0.04 s; % protection ([4]; After 120 min.): (164.4) %; Latency period ± SEM ([4]; After 120 min.): 5.79 ± 0.04 s; Potency [4]: 290; potency, central analgesic properties ([4]; in vivo): 2.9 folds of indomethacin; IC50 [5]: 4.86 ± 0.24 µM; IC50 [6]: 141 ± 11.1 µM; SI(COX-2/COX-1) [6]: 29.0; melting point: 205 °C"
"CC(C)Cc1ccc(C(C)C(=O)N[C@@H](CC(C)C)C(=O)Nc2ccc(O)cc2)cc1 (stereo partly drawn) [Compound 7g, (2S)-N-(4-Hydroxyphenyl)-2-(2-(4-isobutylphenyl)propanamido)-4-methylpentanamide]",0.01333,30,0.86 ± 0.03,39,0.92 ± 0.04,75,0.33 ± 0.03,48,0.65 ± 0.03,37,0.12 ± 0.03,75,75,94,144,79.1,20.3 ± 0.9,(36.0) %,3.29 ± 0.05,(39.0) %,% Incidence of ulcer divided by 10 [2]: 0; Average of ulcer number [2]: 0; Average severity of ulcer [2]: 0; Number of animals with ulcer [2]: 0; Ulcer index [2]: 0; Latency period ± SEM ([4]; After 60 min.): 3.10 ± 0.01 s; % protection ([4]; After 90 min.): (43.6) %; Latency period ± SEM ([4]; After 90 min.): 3.16 ± 0.06 s; % protection ([4]; After 120 min.): (79.0) %; Latency period ± SEM ([4]; After 120 min.): 3.92 ± 0.08 s; Potency [4]: 140; IC50 [5]: 2.65 ± 0.13 µM; IC50 [6]: 144 ± 11.2 µM; SI(COX-2/COX-1) [6]: 54.3; melting point: 230.5 °C
"CC(C)Cc1ccc(C(C)C(=O)N[C@@H](CCC(N)=O)C(=O)Nc2ccc(O)cc2)cc1 (stereo partly drawn) [Compound 7j, (2S)—N1-(4-Hydroxyphenyl)-2-(2-(4-isobutylphenyl)propanamido)pentanediamide]",0.01282,55,0.55 ± 0.04,71,0.44 ± 0.02,78,0.28 ± 0.01,47,0.66 ± 0.03,32,0.13 ± 0.03,78,78,98,34,18.8,79.0 ± 1.8,(60.7) %,3.89 ± 0.03,(64.6) %,% Incidence of ulcer divided by 10 [2]: 0; Average of ulcer number [2]: 0; Average severity of ulcer [2]: 0; Number of animals with ulcer [2]: 0; Ulcer index [2]: 0; Latency period ± SEM ([4]; After 60 min.): 3.67 ± 0.02 s; % protection ([4]; After 90 min.): (74.5) %; Latency period ± SEM ([4]; After 90 min.): 3.84 ± 0.15 s; % protection ([4]; After 120 min.): (124.7) %; Latency period ± SEM ([4]; After 120 min.): 4.92 ± 0.07 s; Potency [4]: 220; IC50 [5]: 8.29 ± 0.41 µM; IC50 [6]: 116 ± 8.23 µM; SI(COX-2/COX-1) [6]: 14.0
"CC(C)Cc1ccc(C(C)C(=O)NCCCC(=O)Nc2ccc(O)cc2)cc1 (centres unmarked) [Compound 7d, N-(4-Hydroxyphenyl)-4-(2-(4-isobutylphenyl)propanamido)butanamide]",0.01515,13,1.07 ± 0.06,25,1.14 ± 0.04,66,0.44 ± 0.03,13,1.09 ± 0.04,53,0.09 ± 0.01,66,66,83,77,42.1,56.3 ± 0.7,(49.2) %,3.61 ± 0.05,(27.8) %,Latency period ± SEM ([4]; After 60 min.): 2.85 ± 0.04 s; % protection ([4]; After 90 min.): (15.0) %; Latency period ± SEM ([4]; After 90 min.): 2.53 ± 0.02 s; % protection ([4]; After 120 min.): (12.3) %; Latency period ± SEM ([4]; After 120 min.): 2.46 ± 0.09 s; Potency [4]: 22; melting point: 140.6 °C
"CC(C)Cc1ccc(C(C)C(=O)N[C@@H](C)C(=O)Nc2ccc(O)cc2)cc1 (stereo partly drawn) [Compound 7b, (2S)-N-(4-Hydroxyphenyl)-2-(2-(4-isobutylphenyl)propanamido)propanamide]",0.01613,21,0.97 ± 0.05,25,1.13 ± 0.06,62,0.50 ± 0.02,44,0.70 ± 0.03,5,0.18 ± 0.02,62,62,78,132,72.6,26.7 ± 1.1,(74.0) %,4.21 ± 0.14,(78.5) %,Latency period ± SEM ([4]; After 60 min.): 3.98 ± 0.09 s; % protection ([4]; After 90 min.): (75.0) %; Latency period ± SEM ([4]; After 90 min.): 3.85 ± 0.05 s; % protection ([4]; After 120 min.): (60.7) %; Latency period ± SEM ([4]; After 120 min.): 3.52 ± 0.06 s; Potency [4]: 107; melting point: 193.7 °C
"CC(C)Cc1ccc(C(C)C(=O)N[C@@H](CCC(N)=O)C(=O)O)cc1 (stereo partly drawn) [Compound 5j, (2-(4-Isobutylphenyl)propanoyl)-L-glutamine]",0.01389,25,0.92 ± 0.05,45,0.83 ± 0.04,72,0.36 ± 0.02,8,1.15 ± 0.06,47,0.10 ± 0.03,72,72,90,3,1.6,95.7 ± 2.4,(22.3) %,2.96 ± 0.02,(25.1) %,% Incidence of ulcer divided by 10 [2]: 0; Average of ulcer number [2]: 0; Average severity of ulcer [2]: 0; Number of animals with ulcer [2]: 0; Ulcer index [2]: 0; Latency period ± SEM ([4]; After 60 min.): 2.79 ± 0.03 s; % protection ([4]; After 90 min.): (45.5) %; Latency period ± SEM ([4]; After 90 min.): 3.20 ± 0.04 s; % protection ([4]; After 120 min.): (46.1) %; Latency period ± SEM ([4]; After 120 min.): 3.20 ± 0.03 s; Potency [4]: 81; melting point: 67.4 °C
